“Also recorded” adds a separate entry of the source.
Experiments:
[1] = system: endogenous FKBPs; details: cited from earlier work
[2] = molecular target: FKBP12F36V (Homo sapiens, UniProt P62942, F37V); details: cited from earlier work
[3] = system: endogenous (host) germ cells; experiment: Host germ cell ablation and donor PGC colonisation in Dazl-aviCaspase9 G2 embryos with B/B; type: in vivo, chicken; details: Dazl-aviCaspase9 G2 embryos injected with donor TdTomato PGCs and B/B, examined at day 10; FIG. 12
Method: FIG. 12 B/B drug treatment of aviCaspase9 transgenic embryos ablates host germ cells and permits transplanted donor cells to populate the host gonad. Stage HH 16 embryos containing the aviCaspase9 transgene targeted to the DAZL locus, were injected with 200 donor PGCs transfected with a transposon to insert a cassette for TdTomato expression randomly in the genome. Injected cells were in 1 μl of solution containing 0.5 mM (final concentration) B/B dimerization drug. After injection, eggs were dosed with 50 μl of 1× Pen/Strep containing 15 μM (final concentration) B/B dimeriser drug and incubated for 8 days. At 10 days of development, gonads were dissected and viewed under fluorescence.
The G1 Dazl-icaspase9 and Dazl-aviCaspase9 chickens were raised to sexual maturity and mated with wildtype chickens. Fertile eggs from the matings (G2 embryos) were incubated and examined for GFP expression in the gonads. The germ cells in the gonads of both Dazl-icaspase9 and Dazl-avicaspase9 G2 embryos contained GFP+ cells in the gonad (FIG. 9). […] The G2 embryos were tested for germ cell ablation. 1.0 μl of 0.1 mM B/B dimerization reagent (Takara Bio, Inc) was injected into the bloodstream of day 2.5 (stage 16 Hamilton & Hamburger (HH)) chicken embryos. The embryos were incubated for 8 days, PCR-screened to identify iCaspase9 embryos and examined for GFP expression in the gonads. […]

[4] = system: host germ cells; experiment: Offspring from Dazl-Caspase9 hosts injected with Silkie donor PGCs and B/B; type: in vivo, chicken; details: Dazl-Caspase9 hosts injected with black skinned Silkie PGCs; FIG. 23
Method: FIG. 23 illustrates the use of caspase9 host ablation using black skinned silkie chicken donor PGCs injected into the iCaspase9 surrogate host embyros which are hatched and bred to produce pure offspring. […] (A-C) The offspring (embryos and chicks) have black skins indicating they came from the donor germ cells.
Utilising caspase 9 expression targeted to the DAZL locus in PGCs, host germ cell ablation and producing offspring from a donor chicken breed were tested using chicken donor PGCs from a black skinned silkie chicken breed. Donor PGCs injected into the caspase host embryos which were then raised to sexual maturity and bred were tested.
In more detail, in this embodiment, black skinned Silkie PGCs were mixed with B/B dimerisation drug and injected into Dazl-Caspase host embryos whilst in the egg. The eggs were sealed and the embryos were hatched then crossed to each other when sexual mature.
50% of offspring should be GFP positive if derived from the endogenous GFP+ caspase9 host PGCs.

[5] = system: PGCs containing the targeted icaspase9 gene; experiment: PGC culture with dimerization molecule B/B, total cell number after 10 days; type: cell-based, chicken
Method: FIG. 6 500 PGCs (dazl-GFP, dazl-human-Caspase or dazl-chicken-Caspase) were cultured in the presence or absence of the dimerization molecule B/B. After 10 days the total cell number was counted for each well. N=6 for each data point, from three independent experiments.
FIG. 22 500 PGCs (dazl-GFP, dazl-iCaspase, dazl-aviCaspase, ddx4-iCaspase9) were cultured in the presence or absence of the dimerization molecule B/B. After 10 days the total cell number was counted for each well. N=2 for each data point.
PGCs containing the targeted icaspase9 gene were treated with the B/B dimerization compound. […] These cells were mixed with control red fluorescent PGCs and injected into chicken embryos. The chicken embryos were treated with the B/B dimerization compound. Only red PGCs and control GFP PGCs were visible in the embryos. Dazl icaspase9 PGCs were killed (FIG. 7).
The iCaspase9 trasgene was targeted to either the DDX4 or the DAZL locus in PGCs and the cells were then exposed to the dimerisation drug. Cells containing the transgene inserted at the DAZL locus were determined to be inhibited/killed. Without wishing to be bound by theory, the inventors consider the expression levels at embryonic stages are important for ablating germ cells.

[6] = system: DAZL-iCasp9 targeted PGCs; experiment: Ablation of injected DAZL-iCasp9 targeted PGCs in embryos treated with B/B; type: in vivo, chicken; details: stage HH 16 embryos, 25 nM B/B, gonads viewed at 8 days; FIG. 7
Method: Stage HH 16 embryos were injected with 3500 PGCs transfected with CRISPR reagents to insert an inducible caspase gene and GFP at the dazl locus, and 3500 PGCs transfected with a transposon to insert a cassette for TdTomato expression randomly in the genome. After injection, embryos were dosed with 50 μl of 1× Pen/Strep with or without 25 nM of the dimeriser drug B/B. At 8 days of development, gonads were dissected and viewed under fluorescence. Images are representative of three independent injections for each treatment.
PGCs containing the targeted icaspase9 gene were treated with the B/B dimerization compound. […] These cells were mixed with control red fluorescent PGCs and injected into chicken embryos. The chicken embryos were treated with the B/B dimerization compound.

[7] = system: germ cells; experiment: Germ cell ablation in G2 Dazl-iCaspase9 and Dazl-aviCaspase9 embryos after B/B injection; type: in vivo, chicken; details: FIG. 11
Method: B/B was injected into the dorsal aorta of stage 16 chicken embryos (day 2.5). Embryos were incubated and examined at day 10 for GFP fluorescence and DDX4 expression. Left panels; GFP fluorescence in B/B injected iCaspase9 and aviCaspase9 embryos. Right panels: immunofluorescence for DDX4 protein (red).
The G1 Dazl-icaspase9 and Dazl-aviCaspase9 chickens were raised to sexual maturity and mated with wildtype chickens. Fertile eggs from the matings (G2 embryos) were incubated and examined for GFP expression in the gonads. The germ cells in the gonads of both Dazl-icaspase9 and Dazl-avicaspase9 G2 embryos contained GFP+ cells in the gonad (FIG. 9). […] The G2 embryos were tested for germ cell ablation. 1.0 μl of 0.1 mM B/B dimerization reagent (Takara Bio, Inc) was injected into the bloodstream of day 2.5 (stage 16 Hamilton & Hamburger (HH)) chicken embryos. The embryos were incubated for 8 days, PCR-screened to identify iCaspase9 embryos and examined for GFP expression in the gonads. […] Embryos were incubated for 8 days and examined for florescence and germ cells. […] (FIG. 12).

[8] = system: PGCs containing the targeted nitroreductase gene; experiment: PGC culture with nitroreductase pro-drug CB1954, total cell number after 10 days; type: cell-based, chicken
Method: FIG. 5 500 PGCs (Control, CAG-NTR or Dazl-NTR) were cultured in the presence or absence of the nitroreductase pro-drug CB1954 (n=2 for each concentration of pro-drug). After 10 days the total cell number was counted for each well. N=6 for each data point, from three independent experiments.
PGCs containing the targeted nitroreductase gene were treated with the pro-drug CB1954. PGCs died when exposed to the drug.

Sequence of FKBP12F36V (P62942 whole entry F37V): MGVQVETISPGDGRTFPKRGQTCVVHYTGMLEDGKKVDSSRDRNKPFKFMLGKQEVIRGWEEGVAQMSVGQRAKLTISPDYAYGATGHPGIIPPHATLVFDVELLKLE

Row | SMILES | interaction with endogenous FKBPs [1] | affinity and selectivity for FKBP12F36V [2] | endogenous (host) germ cells in the gonad [3] | skin phenotype of offspring (donor origin) [4] | PGC number ([5]; control untargeted PGCs) | PGC number ([5]; human and chicken caspase9 genes targeted to the dazl locus, FIG. 6) | PGC number ([5]; iCaspase 9 targeted to the ddx4 locus) | effect on cells with iCaspase9 transgene ([5]; transgene inserted at the DAZL locus, FIG. 22) | fate of injected Dazl icaspase9 PGCs in embryos [6] | GFP expression in the gonads ([7]; 1.0 μl of 0.1 mM injected at day 2.5, incubated 8 days) | DDX4 positive or GFP+ germ cells in the gonads ([7]; cryosections and DDX4 immuno-staining) | cell number versus control cells ([8]; NTR targeted to the dazl locus, FIG. 5) | PGC survival on exposure to pro-drug ([8]; PGCs containing the targeted nitroreductase gene)
1 | CC[C@H](C(=O)N1CCCC[C@H]1C(=O)O[C@H](CCc1ccc(OC)c(OC)c1)c1cccc(OCC(=O)NCCNC(=O)COc2cccc([C@@H](CCc3ccc(OC)c(OC)c3)OC(=O)[C@@H]3CCCCN3C(=O)[C@@H](CC)c3cc(OC)c(OC)c(OC)c3)c2)c1)c1cc(OC)c(OC)c(OC)c1 [AP1903] | minimal interaction | high affinity and selectivity |  |  |  |  |  |  |  |  |  |  | 
2 | CC[C@H](C(=O)N1CCCC[C@H]1C(=O)O[C@H](CCc1ccc(OC)c(OC)c1)c1cccc(OCC(=O)NCC(CNC(=O)COc2cccc([C@@H](CCc3ccc(OC)c(OC)c3)OC(=O)[C@@H]3CCCCN3C(=O)[C@@H](CC)c3cc(OC)c(OC)c(OC)c3)c2)CN(C)C)c1)c1cc(OC)c(OC)c(OC)c1 [B/B, AP20187] | minimal interaction | high affinity and selectivity | no endogenous (host) germ cells were detected | black skin | did not have reduced numbers of PGCs | severely reduced PGC numbers | slightly less PGC number | inhibited/killed | killed; also recorded: ablates | no visible GFP expression | almost no identifiable DDX4 positive or GFP+ cells are present; also recorded: no germ cells |  | 
3 | NC(=O)c1cc(N2CC2)c([N+](=O)[O-])cc1[N+](=O)[O-] [CB1954] |  |  |  |  |  |  |  |  |  |  |  | reduction in cell number in comparison to the control cells | died
